In ChEMBL document CHEMBL5726270, “1-pyrazolyl-3-(4-((2-anilinopyrimidin-4-yl)oxy)napththalen-1-yl) ureas as P38 MAP knase inhibitors” (2017):

Target: T1, Mitogen-activated protein kinase 12 (Homo sapiens, UniProt P53778)
T1 sequence (P53778 whole entry): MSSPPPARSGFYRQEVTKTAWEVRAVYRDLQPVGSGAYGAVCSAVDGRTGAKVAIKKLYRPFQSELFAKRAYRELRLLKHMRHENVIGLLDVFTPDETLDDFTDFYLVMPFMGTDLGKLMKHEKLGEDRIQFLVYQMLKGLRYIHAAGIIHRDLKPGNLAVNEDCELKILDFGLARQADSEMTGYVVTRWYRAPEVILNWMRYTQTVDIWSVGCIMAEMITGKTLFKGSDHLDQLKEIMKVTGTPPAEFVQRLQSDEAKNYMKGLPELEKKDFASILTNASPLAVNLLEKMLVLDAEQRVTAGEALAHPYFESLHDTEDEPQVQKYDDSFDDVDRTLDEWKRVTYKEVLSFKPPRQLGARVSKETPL
Assay: p38 MAPKγ Enzyme Inhibition: The inhibitory activities of compounds of the invention against p38MAPKγ (MAPK12: Invitrogen), were evaluated in a similar fashion to that described hereinabove. The enzyme (800 ng/mL, 2.5 μL) was incubated with the test compound (2.5 μL at either 4 μg/mL, 0.4 μg/mL, 0.04 μg/mL, or 0.004 μg/mL) for 2 hr at RT. The FRET peptides (8 μM, 2.5 μL), and appropriate ATP solution (2.5 μL, 400 μM) was then added to the enzymes/compound mixtures and incubated for 1 hr. Development reagent (protease, 5 μL) was added for 1 hr prior to detection in a fluorescence microplate reader (Varioskan® Flash, Thermo Scientific).

IC50: > 15.1 µM
SMILES: Cc1ccc(-n2nc(C(C)(C)C)cc2NC(=O)Nc2ccc(Oc3ccnc(Nc4ccccc4Cl)n3)c3ccccc23)cc1
